The values below come from patent publication US20240060133A1, “METHODS FOR IDENTIFICATION AND TREATMENT OF BLEEDING IN ANIMALS” (WASHINGTON STATE UNIVERSITY, priority 2021, published 2024).

One experiment concerns the target T1, canine plasmin (Canis lupus familiaris, UniProt P80009).
T1 construct: purchased Molecular Innovation, Novi, MI DPLM
Briefly: Plasmin inhibition assay (microplate-based colorimetric kinetic assay). As to conditions: substrate D-VLK-pNA, 37° C., preliminary studies, FIG. 1, read-out: IC50, concentration-dependent inhibition of plasmin activity. Format: biochemical. The procedure: A microplate-based colorimetric kinetic assay was developed and validated to measure the potency of inhibition of canine plasmin by plasma based on a previously published method. Briefly, 2 μL of canine plasma diluted to 50 μL in phosphate-buffered saline (PBS) was added on ice to 96-well UV clear nonbinding plates (Cat. #655901, Greiner Bio-One, Monroe, NC). Then, 50 μL of canine plasmin (Cat. #DPLM, Molecular Innovation, Novi, MI) at 100 nM concentration in 50 μL PBS was added, mixed by pipetting, and incubated at 37° C. for 5 min. To this, 100 μL of prewarmed plasmin substrate (D-VLK-pNA, Molecular Innovation, Novi, MI) at 200 μM concentration in PBS was added, mixed, and immediately placed in a colorimetric plate reader (SpectraMax i3, Molecular Devices, San Jose, CA) set at 37° C. Absorbance at 405 nm was then monitored in each well over the next 5 minutes. Plasmin hydrolysis activity for each well was calculated from the fitted linear slope of the absorbance versus time curve over 5 minutes.
Preliminary studies confirmed concentration-dependent inhibition of plasmin activity by the antifibrinolytic aprotinin (Cat. #A1153, Sigma Aldrich, St Louis, MO) with an IC50 of approximately 500 nM (see FIG. 1). Plasma collected in sodium citrate and pooled from 2 male and 2 female beagle dogs was obtained from a commercial vendor (Biochemed Services, Winchester, VA). […]

Experiment [1] concerns delayed postoperative bleeding in greyhounds. As to conditions: 46 greyhounds, limb amputation for osteosarcoma, after introduction of the prophylactic treatment; cited from earlier work.
Experiment [2] relates to delayed postoperative bleeding in Scottish deerhounds. The experiment in a line: Scottish deerhound cases with delayed postoperative bleeding (health survey and veterinary records). The experiment is classed as in vivo, Scottish deerhound dogs. As to conditions: for hematocrit and platelet counts: SDH-2, 750 mg intravenous infusion; for hematocrit: SDH-4, continuous intravenous infusion plus transfusions of whole blood and plasma. An excerpt: For the instant example, Scottish deerhounds with delayed postoperative bleeding and matched controls were identified through a survey distributed to members of the Scottish Deerhound Club of America. A subsection of this survey requested information regarding the surgical history of the dogs, occurrence of postoperative bleeding complications, and perioperative administration of antifibrinolytic drugs (EACA or tranexamic acid). A diagnosis of delayed postoperative bleeding, defined as unexpected bleeding from a surgical wound starting 1 to 4 days after the procedure, was based on review of the owner's description of the event, the veterinary medical record (if available), and therapeutic response to administration of antifibrinolytic drugs (if used). Dogs were excluded if the bleeding event occurred on the same day of surgery, or after more than 4 days following surgery.
The instant example utilizes the methods described in Example 1 to identify delayed postoperative bleeding cases in canines and controls. Completed health surveys from the owners of 260 Scottish deerhounds were reviewed to identify delayed postoperative bleeding cases and controls. Of the original 260 dogs evaluated, 105 dogs (40%) were identified that had undergone at least one surgical procedure, while 21 dogs (8%) had received two or more surgeries. Nine of 105 dogs (9%) with a surgical history were reported to have experienced postoperative bleeding and/or excessive bruising at least once after a surgical procedure. Of these, bleeding into the abdomen was first diagnosed within 8 hours after surgery in two dogs, while bleeding and/or bruising was not evident until at least the morning after surgery in the remaining 7 dogs. These latter 7 dogs were considered delayed postoperative bleeding cases and all had DNA samples available for case-control analysis. Of the 96 dogs that had undergone surgery without evidence for postoperative bleeding, 25 dogs (26%) had received prophylactic treatment with EACA, while 71 dogs (74%) had not received any antifibrinolytic drug. These latter 71 dogs were considered delayed postoperative bleeding controls. Of the 71 control dogs, 55 dogs had DNA samples available for case-control genetic analysis.
Case information for the seven dogs (SDH-1 to SDH-7) that met the inclusion/exclusion criteria for delayed postoperative bleeding are shown in Table 1.

Setting [3] is: SDH-2, Day 1-evening (after aminocaproic acid), 750 mg intravenous infusion.
[4] abbreviates: prophylactic antifibrinolytic given, individual dogs SDH-3 and SDH-6.

pIC50: −log10 of the molar value.

T1 sequence (P80009 104-333 limits assumed): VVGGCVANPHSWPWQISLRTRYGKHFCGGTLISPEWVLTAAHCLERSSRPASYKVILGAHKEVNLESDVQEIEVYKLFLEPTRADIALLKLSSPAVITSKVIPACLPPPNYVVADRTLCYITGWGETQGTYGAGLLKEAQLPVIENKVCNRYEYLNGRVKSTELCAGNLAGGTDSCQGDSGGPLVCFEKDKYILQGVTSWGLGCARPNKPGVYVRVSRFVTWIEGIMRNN
T1 sequence (P80009 with tags, fused parts or gaps partner limits assumed): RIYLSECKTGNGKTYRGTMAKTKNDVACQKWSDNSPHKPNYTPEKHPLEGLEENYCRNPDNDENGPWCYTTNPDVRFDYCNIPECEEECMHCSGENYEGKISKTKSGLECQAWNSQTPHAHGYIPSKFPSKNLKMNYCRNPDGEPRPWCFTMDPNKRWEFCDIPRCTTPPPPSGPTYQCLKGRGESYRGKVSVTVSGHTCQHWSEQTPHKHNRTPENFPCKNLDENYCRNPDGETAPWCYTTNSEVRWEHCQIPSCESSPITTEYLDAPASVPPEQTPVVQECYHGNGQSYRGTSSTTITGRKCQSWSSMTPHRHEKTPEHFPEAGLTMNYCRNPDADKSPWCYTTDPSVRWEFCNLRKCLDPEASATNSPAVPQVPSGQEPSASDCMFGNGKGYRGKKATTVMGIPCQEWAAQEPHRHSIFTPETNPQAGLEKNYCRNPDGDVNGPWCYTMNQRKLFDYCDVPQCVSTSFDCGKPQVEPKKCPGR

As to aprotinin, the pIC50 at canine plasmin was ~6.30.

For the molecule `NCCCCCC(=O)O` [EACA, 6-aminohexanoic acid], the incidence of bleeding in experiment [1] was 16%. Besides, the “hematocrit and platelet counts” value in experiment [2] (by Day 5) was “within their normal range”; in experiment [2] (next morning (Day 2)), “significantly increased”. The “Hematocrit (%)” value in experiment [2] (setting [3]) was 34.4%; in experiment [2] (SDH-2, Day 2), 41.7%; in experiment [2] (SDH-2, Day 5), 51.9%; in experiment [2] (SDH-2, Week 5), 50.4%. In addition, the “Platelet count (×10^9/L)” value in experiment [2] (setting [3]) is given as 31 ×10^9/L; in experiment [2] (SDH-2, Day 2), 125 ×10^9/L; in experiment [2] (SDH-2, Day 5) it was 371 ×10^9/L; in experiment [2] (SDH-2, Week 5), 276 ×10^9/L. Besides, the “bleeding after therapeutic treatment” value in experiment [2] (SDH-3, castration, 500 mg orally every 8 hours for 5 days, with fluids, antibiotics, vitamin K) is listed as “No further bleeding was observed”; in experiment [2] (SDH-6, sebaceous cyst removal, orally administered after bleeding) it was “the bleeding resolved”. Besides, the “bruising or delayed postoperative bleeding after prophylactic treatment” value in experiment [2] (SDH-3, splenectomy, 500 mg intravenous infusion during procedure then 500 mg oral every 8 hours for 5 days) is on record as “No excessive bruising or delayed postoperative bleeding were observed”. Besides, the figures for the hematocrit in experiment [2] (after one month) and in experiment [2] (at discharge after 5 days (15% before)) were 60% and 36%, respectively. For the same molecule, the “postoperative bleeding or bruising after prophylactic treatment” value in experiment [2] (SDH-6, skin abscess surgery, pre-operative oral dose) is reported as “No postoperative bleeding or bruising was observed”. The “bleeding after drug administration” value in experiment [2] (dogs with delayed postoperative bleeding, EACA oral or injectable) was “stopped within hours”. The “Delayed bleeding?” value in experiment [2] (setting [4]) was “No”. Moreover, the Outcome result in experiment [2] (setting [4]) is listed as “No complications”; in experiment [2] (therapeutic antifibrinolytic given after delayed bleeding, individual dogs SDH-2 to SDH-6), “Responded to antifibrinolytic”.
